The values that follow are results of earlier work, collected in patent US10703773B2, “Glycosyl hesperetin and process for producing the same and uses thereof” (Hayashibara Co. Ltd., priority 2014, dated 2020).

SMILES strings stand for the structures.

The conditions of the data set: in water at ambient temperature.

Turning to `COc1ccc([C@@H]2CC(=O)c3c(O)cc(O[C@@H]4O[C@H](CO[C@@H]5O[C@@H](C)[C@H](O)[C@@H](O)[C@H]5O)[C@@H](O)[C@H](O)[C@H]4O)cc3O2)cc1O` [hesperidin], the Water solubility entry is “about 0.002 w/v %”.
